Experimental data: ChEMBL document CHEMBL3588841, “Synthesis and cancer cell growth inhibitory activity of icaritin derivatives” (Eur J Med Chem, 2015)

What was measured:
MCF7 [1] = test: Cytotoxicity against human MCF7 cells assessed as cell viability by MTT assay; format: functional, cell-based
[2] = Cytotoxicity against human MDA-MB-435S cells assessed as cell viability by MTT assay; format: functional, cell-based
A549 [3] = test: Cytotoxicity against human A549 cells assessed as cell viability by MTT assay; format: functional, cell-based
Vero = test: Cytotoxicity against African green monkey Vero cells assessed as cell viability by MTT assay; format: cell-based; details: Chlorocebus sabaeus
MCF7 [4] = test: Ratio of icaritin to compound for human MCF7 cells assessed as cell viability by MTT assay; format: functional
[5] = Ratio of icaritin to compound for human MDA-MB-435S cells assessed as cell viability by MTT assay; format: functional
A549 [6] = test: Ratio of icaritin to compound for human A549 cells assessed as cell viability by MTT assay; format: functional
MCF7 [7] = test: Ratio of tamoxifen to compound for human MCF7 cells assessed as cell viability by MTT assay; format: functional
[8] = Ratio of tamoxifen to compound for human MDA-MB-435S cells assessed as cell viability by MTT assay; format: functional
A549 [9] = test: Ratio of tamoxifen to compound for human A549 cells assessed as cell viability by MTT assay; format: functional
[10] = Chemical stability of the compound in phosphate buffered saline assessed as decomposition at pH 7; format: physicochemical; details: read-out: Drug degradation

Structure (SMILES) | IC50 (MCF7 [1]) [µM] | IC50 ([2]; Homo sapiens, MDA-MB-435S) [µM] | IC50 (A549 [3]) [µM] | IC50 (Vero) [µM] | other results
COc1ccc(-c2oc3c(CC=C(C)C)c(O)cc(O)c3c(=O)c2O)cc1 [ICARITIN] | 7 | 24.9 | > 100 | 21.6 | –
CCOC(=O)CCCOc1c(-c2ccc(OC)cc2)oc2c(CC=C(C)C)c(O)cc(O)c2c1=O | 3 | 8.8 | 11 | 5.8 | –
COc1ccc(-c2oc3c(CC=C(C)C)c(O)cc(O)c3c(=O)c2OCCCC(=O)O)cc1 | > 100 | 10 | 23.9 | 55.9 | –
COc1ccc(-c2oc3c(CC=C(C)C)c(OCCCC(=O)O)cc(O)c3c(=O)c2OCCCC(=O)O)cc1 | > 100 | 31.1 | 26 | – | –
COc1ccc(-c2oc3c(CC=C(C)C)c(OC(C)C(=O)O)cc(O)c3c(=O)c2OC(C)C(=O)O)cc1 (stereo in doubt; 3b) | – | – | – | – | IC50 ([2]; mda-mb-435s): 26.7 µM
CCOC(=O)COc1cc(O)c2c(=O)c(OCC(=O)OCC)c(-c3ccc(OC)cc3)oc2c1CC=C(C)C | > 100 | > 100 | > 100 | – | –
CCOC(=O)/C=C/COc1c(-c2ccc(OC)cc2)oc2c(CC=C(C)C)c(O)cc(O)c2c1=O | 10.3 | 2.2 | 4.7 | 3.1 | Ratio (MCF7 [4]): 2.5; Ratio [5]: 2.5; Ratio (A549 [6]): 2.5; Ratio (MCF7 [7]): 2.5; Ratio [8]: 2.5; Ratio (A549 [9]): 2.5
COc1ccc(-c2oc3c(CC=C(C)C)c(O)cc(O)c3c(=O)c2OCC(=O)O)cc1 | 82.5 | 17.8 | 43.4 | – | –
COc1ccc(-c2oc3c(CC=C(C)C)c(O)cc(O)c3c(=O)c2OC/C=C/C(=O)O)cc1 | 48.9 | 8.3 | 10.7 | 7.1 | –
CCOC(=O)C(C)Oc1cc(O)c2c(=O)c(OC(C)C(=O)OCC)c(-c3ccc(OC)cc3)oc2c1CC=C(C)C (single isomer, unassigned; diastereomer 2) | > 100 | > 100 | > 100 | – | –
COc1ccc(-c2oc3c(CC=C(C)C)c(OC/C=C/C(=O)O)cc(O)c3c(=O)c2OC/C=C/C(=O)O)cc1 | > 100 | 57.5 | > 100 | – | –
COc1ccc(-c2oc3c(CC=C(C)C)c(OCCOC(=O)CCCC(=O)O)cc(O)c3c(=O)c2OCCOC(=O)CCCC(=O)O)cc1 | 3 | 6.3 | 6.1 | > 100 | degraded [10]: 7%
COc1ccc(-c2oc3c(CC=C(C)C)c(OCCCOC(=O)CCC(=O)O)cc(O)c3c(=O)c2OCCCOC(=O)CCC(=O)O)cc1 | > 100 | 6.4 | 18.4 | 14.5 | –
COc1ccc(-c2oc3c(CC=C(C)C)c(OC(C(=O)O)C(=O)O)cc(O)c3c(=O)c2OC(C(=O)O)C(=O)O)cc1 | > 100 | 78.9 | > 100 | – | –
COc1ccc(-c2oc3c(CC=C(C)C)c(OC(C)C(=O)O)cc(O)c3c(=O)c2O)cc1 (racemic) | > 100 | 5.7 | 15.3 | 19.3 | –
COc1ccc(-c2oc3c(CC=C(C)C)c(OCCCC(=O)O)cc(O)c3c(=O)c2O)cc1 | > 100 | 12.7 | 19.1 | – | –
CCOC(=O)COc1c(-c2ccc(OC)cc2)oc2c(CC=C(C)C)c(O)cc(O)c2c1=O | > 100 | 30 | 65.2 | – | –
COc1ccc(-c2oc3c(CC=C(C)C)c(OCCCO)cc(O)c3c(=O)c2OCCCO)cc1 | > 100 | 21.8 | > 100 | – | –
CCOC(=O)CCCOc1cc(O)c2c(=O)c(O)c(-c3ccc(OC)cc3)oc2c1CC=C(C)C | > 100 | > 100 | > 100 | – | –

Structure (SMILES) | IC50 (MCF7 [1]) [µM] | IC50 ([2]; Homo sapiens, MDA-MB-435S) [µM] | IC50 (A549 [3]) [µM] | IC50 (Vero) [µM] | other results
COc1ccc(-c2oc3c(CC=C(C)C)c(O)cc(O)c3c(=O)c2OC(C)C(=O)O)cc1 (racemic) | > 100 | 7.5 | 40.7 | 36.6 | –
COc1ccc(-c2oc3c(CC=C(C)C)c(OCC(=O)O)cc(O)c3c(=O)c2OCC(=O)O)cc1 | > 100 | > 100 | > 100 | – | –
CCOC(=O)C(C)Oc1cc(O)c2c(=O)c(O)c(-c3ccc(OC)cc3)oc2c1CC=C(C)C (racemic) | > 100 | 2.5 | 26.5 | 1.4 | degraded [10]: 25%
COc1ccc(-c2oc3c(CC=C(C)C)c(OCCOC(=O)CCC(=O)O)cc(O)c3c(=O)c2OCCOC(=O)CCC(=O)O)cc1 | > 100 | 60.5 | > 100 | – | –
COc1ccc(-c2oc3c(CC=C(C)C)c(OC(C)C(=O)O)cc(O)c3c(=O)c2OC(C)C(=O)O)cc1 (stereo in doubt; 3c) | > 100 | – | > 100 | – | IC50 ([2]; mda-mb-435s): > 100 µM
CCOC(=O)/C=C/COc1cc(O)c2c(=O)c(O)c(-c3ccc(OC)cc3)oc2c1CC=C(C)C | > 100 | > 100 | > 100 | – | –
CCOC(=O)C(Oc1cc(O)c2c(=O)c(OC(C(=O)OCC)C(=O)OCC)c(-c3ccc(OC)cc3)oc2c1CC=C(C)C)C(=O)OCC | > 100 | 85 | > 100 | – | –
CCOC(=O)C(C)Oc1c(-c2ccc(OC)cc2)oc2c(CC=C(C)C)c(O)cc(O)c2c1=O (racemic) | 4.7 | 4.1 | 4.6 | 6.5 | degraded [10]: 7%
CCOC(=O)C(Oc1c(-c2ccc(OC)cc2)oc2c(CC=C(C)C)c(O)cc(O)c2c1=O)C(=O)OCC | 17.2 | 4.4 | 19.3 | 4.4 | –
CC/C(=C(\c1ccccc1)c1ccc(OCCN(C)C)cc1)c1ccccc1 [TAMOXIFEN] | 3.8 | 5.5 | 8.4 | 5.7 | –
COc1ccc(-c2oc3c(CC=C(C)C)c(OCC(=O)O)cc(O)c3c(=O)c2O)cc1 | > 100 | 13.5 | 16.7 | – | –
COc1ccc(-c2oc3c(CC=C(C)C)c(OCCCOC(=O)CCCC(=O)O)cc(O)c3c(=O)c2OCCCOC(=O)CCCC(=O)O)cc1 | 2.2 | 8.1 | 14.3 | 6.3 | degraded [10]: 7%
COc1ccc(-c2oc3c(CC=C(C)C)c(OCCO)cc(O)c3c(=O)c2OCCO)cc1 | > 100 | > 100 | > 100 | – | –
CCOC(=O)/C=C/COc1cc(O)c2c(=O)c(OC/C=C/C(=O)OCC)c(-c3ccc(OC)cc3)oc2c1CC=C(C)C | > 100 | > 100 | > 100 | – | –
COc1ccc(-c2oc3c(CC=C(C)C)c(OC/C=C/C(=O)O)cc(O)c3c(=O)c2O)cc1 | > 100 | 11.3 | 22.9 | – | –
CCOC(=O)COc1cc(O)c2c(=O)c(O)c(-c3ccc(OC)cc3)oc2c1CC=C(C)C | 27.9 | 5.3 | 41.6 | 1.4 | –
COc1ccc(-c2oc3c(CC=C(C)C)c(O)cc(O)c3c(=O)c2OC(C(=O)O)C(=O)O)cc1 | > 100 | > 100 | > 100 | – | –
CCOC(=O)CCCOc1cc(O)c2c(=O)c(OCCCC(=O)OCC)c(-c3ccc(OC)cc3)oc2c1CC=C(C)C | > 100 | > 100 | > 100 | – | –
